Assay: xn = mol fraction of the nth substance listed
Conditions: 298.15 K, Liquid

CCCCCCCl [1-chlorohexane] + CN(C)C=O
mass density [kg/m3]
Conditions | x2 = 0.097 | x2 = 0.2019 | x2 = 0.2707 | x2 = 0.4007 | x2 = 0.5017 | x2 = 0.6155 | x2 = 0.6988 | x2 = 0.7993 | x2 = 0.9018
100 kPa | 876.9 | 881.2 | 884.4 | 891.3 | 897.4 | 905.4 | 912.7 | 921.8 | 932.6
2000 kPa | 878.5 | 882.8 | 885.9 | 892.8 | 898.8 | 906.9 | 914 | 923.1 | 933.8
4000 kPa | 880.2 | 884.4 | 887.5 | 894.3 | 900.3 | 908.4 | 915.5 | 924.4 | 935.1
6000 kPa | 881.8 | 886 | 889.1 | 895.8 | 901.8 | 909.8 | 916.8 | 925.7 | 936.4
8000 kPa | 883.4 | 887.6 | 890.7 | 897.3 | 903.3 | 911.2 | 918.2 | 927 | 937.6
10000 kPa | 885.1 | 889.3 | 892.3 | 898.8 | 904.8 | 912.7 | 919.6 | 928.4 | 938.9
11900 kPa | – | – | – | – | – | 914 | – | – | –
12000 kPa | 886.7 | 890.8 | 893.8 | 900 | 906.3 | – | 920.9 | 929.7 | 940.1
13900 kPa | – | – | – | – | – | – | – | 930.9 | –
14000 kPa | 888.2 | 892.3 | 895.2 | 901.8 | 907.6 | 915.4 | 922.3 | – | 941.3
16000 kPa | 889.7 | 893.8 | 896.7 | 903.2 | 909.1 | 916.8 | 923 | 932.1 | 942.5
17900 kPa | – | – | – | – | – | – | – | 933.3 | –
18000 kPa | 891.2 | 895.3 | 898.1 | 904.6 | 910.4 | 918.1 | 924.9 | – | 943.6
20000 kPa | 892.8 | 896.6 | 899.6 | 906 | 911.8 | 919.5 | 926.2 | 934.6 | 944.9

CCCCCCCl [1-chlorohexane] + CC(=O)N(C)C
mass density [kg/m3]
Conditions | x2 = 0.0952 | x2 = 0.2003 | x2 = 0.3011 | x2 = 0.4036 | x2 = 0.503 | x2 = 0.6051 | x2 = 0.6992 | x2 = 0.8013 | x2 = 0.8996
100 kPa | 877.1 | 881.6 | 886.4 | 891.9 | 897.5 | 903.8 | 910.4 | 918.4 | 926.8
2000 kPa | 878.7 | 883.2 | 888 | 893.41 | 899 | 905.2 | 911.7 | 919.7 | 928.1
4000 kPa | 880.4 | 884.8 | 889.5 | 895 | 900.4 | 906.7 | 913.1 | 921 | 929.3
6000 kPa | 882 | 886.4 | 891.2 | 896.5 | 901.9 | 908.1 | 914.5 | 922.3 | 930.5
8000 kPa | 883.6 | 888 | 892.7 | 898 | 903.4 | 909.5 | 915.9 | 923.6 | 931.7
10000 kPa | 885.3 | 889.6 | 894.3 | 899.6 | 904.9 | 910.9 | 917.3 | 925 | 933.1
11900 kPa | – | – | – | – | – | – | 918.6 | – | –
12000 kPa | 886.8 | 891.2 | 895.8 | 901 | 906.3 | 912.3 | – | 926.3 | 934.3
14000 kPa | 888.4 | 892.78 | 897.2 | 902.4 | 907.6 | 913.6 | 919.9 | 927.5 | 935.5
16000 kPa | 889.9 | 894.1 | 898.7 | 903.8 | 909 | 914.9 | 921.2 | 928.7 | 936.6
18000 kPa | 891.3 | 895.6 | 900.1 | 905.2 | 910.3 | 916.2 | 922.6 | 929.9 | 937.7
20000 kPa | 892.9 | 897.2 | 901.8 | – | 911.8 | 917.7 | 924 | 931.3 | –
20100 kPa | – | – | – | 906.8 | – | – | – | – | 939

CCCCCCCCCl [1-chlorooctane] + CC(=O)N(C)C
mass density [kg/m3]
Conditions | x2 = 0.0963 | x2 = 0.2006 | x2 = 0.2938 | x2 = 0.4059 | x2 = 0.5022 | x2 = 0.602 | x2 = 0.7005 | x2 = 0.8075 | x2 = 0.901
100 kPa | 872 | 875.8 | 879.6 | 884.87 | 890.2 | 896.7 | 904.1 | 913.7 | 923.6
2000 kPa | 873.5 | 877.2 | 881.1 | 886.2 | 891.5 | 898.1 | 905.4 | 914.9 | 924.8
4000 kPa | 875 | 878.7 | 882.5 | 887.6 | 892.9 | 899.4 | 906.8 | 916.3 | 926.1
6000 kPa | 876.5 | 880.2 | 884 | 889 | 894.3 | 900.8 | 908.1 | 917.5 | 927.3
8000 kPa | 877.9 | 881.6 | 885.5 | 890.4 | 895.8 | 902.2 | 909.4 | 918.8 | 928.5
10000 kPa | 879.5 | 883.1 | 887 | 892 | 897.3 | 903.6 | 910.8 | 920 | 929.8
12000 kPa | 880.9 | 884.5 | 888.3 | 893.3 | 898.5 | 904.9 | 912.1 | 921.3 | 931
14000 kPa | 882.3 | 885.9 | 889.7 | 894.6 | 899.9 | 906.1 | 913.4 | 922.4 | 932.2
15900 kPa | – | – | – | – | – | 907.4 | – | – | –
16000 kPa | 883.7 | 887.3 | 891.1 | 896 | 901.1 | – | 914.6 | 923.7 | 933.3
18000 kPa | 885 | 888.6 | 892.4 | 897.3 | 902.4 | 908.7 | 915.8 | 924.9 | 934.4
20000 kPa | 886.5 | 890.1 | 893.9 | 898.5 | 903.8 | 910 | 917.1 | 926.1 | 935.7

CCCCCl [1-chlorobutane] + CN(C)C=O
mass density [kg/m3]
Conditions | x2 = 0.0998 | x2 = 0.1981 | x2 = 0.2988 | x2 = 0.4019 | x2 = 0.501 | x2 = 0.6087 | x2 = 0.7008 | x2 = 0.8163 | x2 = 0.9007
100 kPa | 885.5 | 890.7 | 896.3 | 902.3 | 908.6 | 915.5 | 921.8 | 930.2 | 936.6
2000 kPa | 887.4 | 892.5 | 898 | 903.9 | 910.1 | 917 | 923.1 | 931.5 | 937.8
4000 kPa | 889.3 | 894.4 | 899.8 | 905.7 | 911.7 | 918.5 | 924.6 | 932.8 | 939.1
6000 kPa | 891.2 | 896.3 | 901.6 | 907.3 | 913.3 | 920 | 926 | 934.2 | 940.3
7900 kPa | – | – | – | – | – | – | 927.5 | – | –
8000 kPa | 893.1 | 898.1 | 903.3 | 908.9 | 914.9 | 921.5 | – | 935.4 | 941.5
10000 kPa | 895.1 | 900 | 905.1 | 910.7 | 916.6 | 923 | 928.8 | 936.8 | 942.9
11900 kPa | – | – | – | – | 918 | – | – | – | –
12000 kPa | 896.9 | 901.6 | 906.8 | 912.2 | – | 924.4 | 930.3 | 938.1 | 944.1
14000 kPa | 898.6 | 903.4 | 908.4 | 913.8 | 919.5 | 925.9 | 931.7 | 939.3 | 945.3
16000 kPa | 900.4 | 905.1 | 910.1 | 915.3 | 921 | 927.21 | 933 | 940.6 | 946.4
18000 kPa | 902.1 | 906.8 | 911.7 | 916.7 | 922.4 | – | 934.3 | 941.8 | 947.5
18100 kPa | – | – | – | – | – | 928.6 | – | – | –
20000 kPa | 903.8 | 908.7 | 913.1 | 918.3 | 924 | 930.2 | 935.6 | 943.3 | 949.1

Reference: the NIST ThermoML archive (doi:10.1021/je700096m)
